Measurements from PMC3105219 (Neuropharmacology, 2011).

What was measured:
mDAT F155Y = mDAT F155Y (Mus musculus, UniProt Q61327, F155Y); test: Uptake inhibition, mDAT F155Y mutant; assay type: cell-based; settings: for IC50: read-out: IC50 uptake inhibition, mDAT F155Y, mean ± SEM
mNET Y151F = mNET Y151F (Mus musculus, UniProt O55192, Y151F); test: Uptake inhibition, mNET Y151F mutant; assay type: cell-based; settings: for IC50: read-out: IC50 uptake inhibition, mNET Y151F, mean ± SEM
DAT = settings: ref Carroll et al., 1995, cited from earlier work
NET = settings: ref Carroll et al., 1995, cited from earlier work
[1] = target: mNET-TM8m (A415T/L418I/S421A/A427S/A433V/D435E) (Mus musculus, UniProt O55192, A414T/A426S/A432V/D434E/L417I/S420A); test: Uptake inhibition, mNET-TM8m mutant; assay type: cell-based; settings: read-out: RTI-113 IC50 [nM] uptake inhibition, mean ± SEM
[2] = target: mNET-TM6m (T306S/I315V/F316C/A321) (Mus musculus, UniProt O55192, A321V/F316C/I315V/T306S); test: Uptake inhibition, mNET-TM6m mutant; assay type: cell-based; settings: read-out: RTI-113 IC50 [nM] uptake inhibition, mean ± SEM
[3] = target: mNET-TM3m (Y151F/S159A/Y161H) (Mus musculus, UniProt O55192, S159A/Y151F/Y161H); test: Uptake inhibition, mNET-TM3m mutant; assay type: cell-based; settings: read-out: RTI-113 IC50 [nM] uptake inhibition, mean ± SEM
mNET Y151A = mNET Y151A (Mus musculus, UniProt O55192, Y151A); test: Uptake inhibition, mNET Y151A mutant; assay type: cell-based; settings: read-out: RTI-113 IC50 [nM] uptake inhibition, mean ± SEM
mNET Y151C = mNET Y151C (Mus musculus, UniProt O55192, Y151C); test: Uptake inhibition, mNET Y151C mutant; assay type: cell-based; settings: read-out: RTI-113 IC50 [nM] uptake inhibition, mean ± SEM
mNET Y151D = mNET Y151D (Mus musculus, UniProt O55192, Y151D); test: Uptake inhibition, mNET Y151D mutant; assay type: cell-based; settings: read-out: RTI-113 IC50 [nM] uptake inhibition, mean ± SEM
mNET Y151E = mNET Y151E (Mus musculus, UniProt O55192, Y151E); test: Uptake inhibition, mNET Y151E mutant; assay type: cell-based; settings: read-out: RTI-113 IC50 [nM] uptake inhibition, mean ± SEM
mNET Y151G = mNET Y151G (Mus musculus, UniProt O55192, Y151G); test: Uptake inhibition, mNET Y151G mutant; assay type: cell-based; settings: read-out: RTI-113 IC50 [nM] uptake inhibition, mean ± SEM
mNET Y151I = mNET Y151I (Mus musculus, UniProt O55192, Y151I); test: Uptake inhibition, mNET Y151I mutant; assay type: cell-based; settings: read-out: RTI-113 IC50 [nM] uptake inhibition, mean ± SEM
mNET Y151K = mNET Y151K (Mus musculus, UniProt O55192, Y151K); test: Uptake inhibition, mNET Y151K mutant; assay type: cell-based; settings: read-out: RTI-113 IC50 [nM] uptake inhibition, mean ± SEM
mNET Y151L = mNET Y151L (Mus musculus, UniProt O55192, Y151L); test: Uptake inhibition, mNET Y151L mutant; assay type: cell-based; settings: read-out: RTI-113 IC50 [nM] uptake inhibition, mean ± SEM
mNET Y151M = mNET Y151M (Mus musculus, UniProt O55192, Y151M); test: Uptake inhibition, mNET Y151M mutant; assay type: cell-based; settings: read-out: RTI-113 IC50 [nM] uptake inhibition, mean ± SEM
mNET Y151N = mNET Y151N (Mus musculus, UniProt O55192, Y151N); test: Uptake inhibition, mNET Y151N mutant; assay type: cell-based; settings: read-out: RTI-113 IC50 [nM] uptake inhibition, mean ± SEM
mNET Y151Q = mNET Y151Q (Mus musculus, UniProt O55192, Y151Q); test: Uptake inhibition, mNET Y151Q mutant; assay type: cell-based; settings: read-out: RTI-113 IC50 [nM] uptake inhibition, mean ± SEM
mNET Y151S = mNET Y151S (Mus musculus, UniProt O55192, Y151S); test: Uptake inhibition, mNET Y151S mutant; assay type: cell-based; settings: read-out: RTI-113 IC50 [nM] uptake inhibition, mean ± SEM
mNET Y151T = mNET Y151T (Mus musculus, UniProt O55192, Y151T); test: Uptake inhibition, mNET Y151T mutant; assay type: cell-based; settings: read-out: RTI-113 IC50 [nM] uptake inhibition, mean ± SEM
mNET Y151V = mNET Y151V (Mus musculus, UniProt O55192, Y151V); test: Uptake inhibition, mNET Y151V mutant; assay type: cell-based; settings: read-out: RTI-113 IC50 [nM] uptake inhibition, mean ± SEM
mNET Y151W = mNET Y151W (Mus musculus, UniProt O55192, Y151W); test: Uptake inhibition, mNET Y151W mutant; assay type: cell-based; settings: read-out: RTI-113 IC50 [nM] uptake inhibition, mean ± SEM
mNET = mNET (Mus musculus, UniProt O55192); assay type: cell-based
mDAT = mDAT (Mus musculus, UniProt Q61327); test: Inhibition of [3H]dopamine uptake, wild type mDAT in transfected HeLa cells; assay type: cell-based
Chain of mDAT (Q61327 whole entry): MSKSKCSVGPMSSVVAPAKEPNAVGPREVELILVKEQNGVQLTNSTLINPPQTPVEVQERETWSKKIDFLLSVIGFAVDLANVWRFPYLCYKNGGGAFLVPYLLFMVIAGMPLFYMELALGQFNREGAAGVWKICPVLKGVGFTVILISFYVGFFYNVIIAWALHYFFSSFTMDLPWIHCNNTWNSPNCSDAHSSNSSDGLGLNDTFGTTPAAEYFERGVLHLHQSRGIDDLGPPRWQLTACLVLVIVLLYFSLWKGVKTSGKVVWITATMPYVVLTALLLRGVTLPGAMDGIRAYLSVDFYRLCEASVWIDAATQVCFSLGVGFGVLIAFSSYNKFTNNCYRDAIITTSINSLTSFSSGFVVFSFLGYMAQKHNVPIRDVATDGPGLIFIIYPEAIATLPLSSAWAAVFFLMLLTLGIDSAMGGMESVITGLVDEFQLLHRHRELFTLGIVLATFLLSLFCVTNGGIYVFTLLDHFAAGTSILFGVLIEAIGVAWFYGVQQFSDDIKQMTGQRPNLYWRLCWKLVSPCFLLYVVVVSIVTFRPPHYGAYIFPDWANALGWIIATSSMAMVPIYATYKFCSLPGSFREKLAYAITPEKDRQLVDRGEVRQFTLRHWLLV

Chain of mNET Y151F (O55192 whole entry Y151F): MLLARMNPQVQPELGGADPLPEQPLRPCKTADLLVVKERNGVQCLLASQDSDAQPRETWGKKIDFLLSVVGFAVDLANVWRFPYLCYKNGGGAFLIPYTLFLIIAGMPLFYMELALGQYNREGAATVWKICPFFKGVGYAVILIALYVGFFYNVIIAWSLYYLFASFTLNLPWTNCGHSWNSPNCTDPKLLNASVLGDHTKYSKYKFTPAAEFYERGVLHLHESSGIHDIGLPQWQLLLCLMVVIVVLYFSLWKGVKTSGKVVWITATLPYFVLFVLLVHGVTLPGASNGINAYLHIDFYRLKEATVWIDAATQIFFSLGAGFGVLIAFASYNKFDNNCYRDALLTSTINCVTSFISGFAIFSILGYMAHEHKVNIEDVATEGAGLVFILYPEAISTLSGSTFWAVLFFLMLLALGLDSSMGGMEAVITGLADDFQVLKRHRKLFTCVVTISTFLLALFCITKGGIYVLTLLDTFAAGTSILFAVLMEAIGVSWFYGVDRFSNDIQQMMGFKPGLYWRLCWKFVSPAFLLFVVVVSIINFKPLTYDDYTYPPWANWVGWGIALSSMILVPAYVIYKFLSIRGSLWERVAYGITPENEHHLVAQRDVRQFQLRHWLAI
Chain of mDAT F155Y (Q61327 whole entry F155Y): as the sequence (Q61327 whole entry) above, with F155Y counted along it
Chain of mNET (O55192 whole entry): as the sequence (O55192 whole entry Y151F) above, with F151Y counted along it
Chain of mNET Y151V (O55192 whole entry Y151V): as the sequence (O55192 whole entry Y151F) above, with F151V counted along it
Chain of mNET Y151L (O55192 whole entry Y151L): as the sequence (O55192 whole entry Y151F) above, with F151L counted along it
Chain of mNET Y151I (O55192 whole entry Y151I): as the sequence (O55192 whole entry Y151F) above, with F151I counted along it
Chain of mNET Y151K (O55192 whole entry Y151K): as the sequence (O55192 whole entry Y151F) above, with F151K counted along it
Chain of mNET Y151Q (O55192 whole entry Y151Q): as the sequence (O55192 whole entry Y151F) above, with F151Q counted along it
Chain of mNET Y151G (O55192 whole entry Y151G): as the sequence (O55192 whole entry Y151F) above, with F151G counted along it
Chain of mNET-TM6m (T306S/I315V/F316C/A321) (O55192 whole entry T306S/I315V/F316C/A321V): as the sequence (O55192 whole entry Y151F) above, with F151Y, T306S, I315V, F316C, A321V counted along it
Chain of mNET-TM8m (A415T/L418I/S421A/A427S/A433V/D435E) (O55192 whole entry A414T/L417I/S420A/A426S/A432V/D434E): as the sequence (O55192 whole entry Y151F) above, with F151Y, A414T, L417I, S420A, A426S, A432V, D434E counted along it
Chain of mNET Y151N (O55192 whole entry Y151N): as the sequence (O55192 whole entry Y151F) above, with F151N counted along it
Chain of mNET Y151W (O55192 whole entry Y151W): as the sequence (O55192 whole entry Y151F) above, with F151W counted along it
Chain of mNET Y151M (O55192 whole entry Y151M): as the sequence (O55192 whole entry Y151F) above, with F151M counted along it
Chain of mNET Y151C (O55192 whole entry Y151C): as the sequence (O55192 whole entry Y151F) above, with F151C counted along it
Chain of mNET Y151D (O55192 whole entry Y151D): as the sequence (O55192 whole entry Y151F) above, with F151D counted along it
Chain of mNET Y151T (O55192 whole entry Y151T): as the sequence (O55192 whole entry Y151F) above, with F151T counted along it
Chain of mNET Y151E (O55192 whole entry Y151E): as the sequence (O55192 whole entry Y151F) above, with F151E counted along it
Chain of mNET Y151S (O55192 whole entry Y151S): as the sequence (O55192 whole entry Y151F) above, with F151S counted along it
Chain of mNET-TM3m (Y151F/S159A/Y161H) (O55192 whole entry Y151F/S159A/Y161H): as the sequence (O55192 whole entry Y151F) above, with S159A, Y161H counted along it
Chain of mNET Y151A (O55192 whole entry Y151A): as the sequence (O55192 whole entry Y151F) above, with F151A counted along it

COC(=O)[C@H]1[C@@H](c2ccc(Cl)cc2)C[C@H]2CC[C@H]1N2C [RTI-31]
IC50 (mDAT F155Y): 1.65 ± 1.19 nM | IC50 (mNET Y151F): 1.44 ± 0.67 nM | potency in inhibiting DAT compared with cocaine (DAT; times more potent than cocaine): 100 x | potency in inhibiting NET compared with cocaine (NET; times more potent than cocaine): 100 x

CN1[C@H]2CC[C@@H]1[C@@H](C(=O)Oc1ccccc1)[C@@H](c1ccc(Cl)cc1)C2 [RTI-113]
IC50 [1]: 269 ± 35.8 nM | IC50 [2]: 341 ± 77.2 nM | IC50 [3]: 1.89 ± 1.29 nM | decrease in potency (mDAT F155Y; mDAT-F155Y versus wild type mDAT): 20 fold | IC50 (mDAT F155Y): 13.4 ± 1.9 nM | increase in potency for inhibition of substrate uptake (mNET Y151F; mNET-Y151F versus wild type mNET): 14 fold | IC50 (mNET Y151F): 12.1 ± 0.8 nM | IC50 (mNET Y151A): 130 ± 15.1 nM | IC50 (mNET Y151C): 211 ± 23 nM | IC50 (mNET Y151D): 306 ± 105 nM | IC50 (mNET Y151E): 770 ± 55.3 nM | IC50 (mNET Y151G): 165 ± 28.4 nM | IC50 (mNET Y151I): 199 ± 65.1 nM | IC50 (mNET Y151K): 453 ± 71 nM | IC50 (mNET Y151L): 342 ± 110 nM | IC50 (mNET Y151M): 679 ± 174 nM | IC50 (mNET Y151N): 291 ± 51.5 nM | IC50 (mNET Y151Q): 831 ± 69 nM | IC50 (mNET Y151S): 99.3 ± 43.8 nM | IC50 (mNET Y151T): 115 ± 33.2 nM | IC50 (mNET Y151V): 181 ± 81.1 nM | IC50 (mNET Y151W): 256 ± 66.9 nM | potency at inhibiting DAT relative to inhibiting NET (DAT; DAT over NET selectivity, stated in abstract): 100 x | loss of potency to NET compared with RTI-31 (NET; times less potent than RTI-31): about 100 times

COC(=O)[C@H]1[C@@H](OC(=O)c2ccccc2)C[C@@H]2CC[C@H]1N2C [cocaine]
IC50 (mNET): 398 ± 66.8 nM | IC50 (mDAT): 318 ± 126 nM
